# From PubChem BioAssay AID1963959 (Molecular Pharmacology Branch, DTP, NCI, 2024)
# pIC50: −log10 of the molar value.
# Tested on: T-47D spheroids with HUVEC/MSC, viability
# Test: Anticancer human tumor T-47D cell line growth inhibition [PI3K];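 also: spheroids exposed to agents for seven days before reading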;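 as to viability, T/C: percent of DMSO vehicle control luminescence so 100% = untreated growth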
# Conditions: for pIC50: curve of first compound; for viability, T/C: stronger effect = lower value
# Procedure, shortened: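 Multi-cell spheroids combine tumor cells with HUVEC and human MSCs, treated with targeted agents alone or with inavolisib, alpelisib, duvelisib or copanlisib. Concentrations fall in half-log steps from at or near clinical Cmax, or from 10 microM where Cmax is unknown; viability read-out.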
# [1] = second compound 0.0316 µM, first compound 0.0316 µM
# [2] = second compound 0.0316 µM, first compound 0.1 µM
# [3] = second compound 0.0316 µM, first compound 0.316 µM
# [4] = second compound 0.0316 µM, first compound 1 µM
# [5] = second compound 0.1 µM, first compound 0.0316 µM
# [6] = second compound 0.1 µM, first compound 0.1 µM
# [7] = second compound 0.1 µM, first compound 0.316 µM
# [8] = second compound 0.1 µM, first compound 1 µM
# [9] = second compound 0.316 µM, first compound 0.0316 µM
# [10] = second compound 0.316 µM, first compound 0.1 µM
# [11] = second compound 0.316 µM, first compound 0.316 µM
# [12] = second compound 0.316 µM, first compound 1 µM
# [13] = second compound 1 µM, first compound 0.0316 µM
# [14] = second compound 1 µM, first compound 0.1 µM
# [15] = second compound 1 µM, first compound 0.316 µM
# [16] = second compound 1 µM, first compound 1 µM
# [17] = second compound 0.0316 µM, first compound 3.16 µM
# [18] = second compound 0.0316 µM, first compound 10 µM
# [19] = second compound 0.1 µM, first compound 3.16 µM
# [20] = second compound 0.1 µM, first compound 10 µM
# [21] = second compound 0.316 µM, first compound 3.16 µM
# [22] = second compound 0.316 µM, first compound 10 µM
# [23] = second compound 1 µM, first compound 3.16 µM
# [24] = second compound 1 µM, first compound 10 µM
# [25] = second compound 3.16 µM, first compound 0.0316 µM
# [26] = second compound 3.16 µM, first compound 0.1 µM
# [27] = second compound 3.16 µM, first compound 0.316 µM
# [28] = second compound 3.16 µM, first compound 1 µM
# [29] = second compound 3.16 µM, first compound 3.16 µM
# [30] = second compound 3.16 µM, first compound 10 µM
# [31] = second compound 10 µM, first compound 0.0316 µM
# [32] = second compound 10 µM, first compound 0.1 µM
# [33] = second compound 10 µM, first compound 0.316 µM
# [34] = second compound 10 µM, first compound 1 µM
# [35] = second compound 10 µM, first compound 3.16 µM
# [36] = second compound 10 µM, first compound 10 µM
smiles,measurement,setting,value
CCN1CCN(Cc2ccc(Nc3ncc(F)c(-c4cc(F)c5nc(C)n(C(C)C)c5c4)n3)nc2)CC1 + COc1c(OCCCN2CCOCC2)ccc2c3n(c(=NC(=O)c4cnc(N)nc4)nc12)CCN3,pIC50,second compound 0.00316 µM,< 6.00
same,pIC50,second compound 0.01 µM,< 6.00
same,pIC50,second compound 0.0316 µM,8.08
same,pIC50,second compound 0.1 µM,> 8.50
same,pIC50,second compound 0.316 µM,> 8.50
same,pIC50,second compound 1 µM,> 8.50
same,"viability, T/C","second compound 0.00316 µM, first compound 0.00316 µM",81.5%
same,"viability, T/C","second compound 0.00316 µM, first compound 0.01 µM",77.9%
same,"viability, T/C","second compound 0.00316 µM, first compound 0.0316 µM",83.2%
same,"viability, T/C","second compound 0.00316 µM, first compound 0.1 µM",74.8%
same,"viability, T/C","second compound 0.00316 µM, first compound 0.316 µM",73.2%
same,"viability, T/C","second compound 0.00316 µM, first compound 1 µM",88.6%
same,"viability, T/C","second compound 0.01 µM, first compound 0.00316 µM",99.1%
same,"viability, T/C","second compound 0.01 µM, first compound 0.01 µM",75.3%
same,"viability, T/C","second compound 0.01 µM, first compound 0.0316 µM",70.5%
same,"viability, T/C","second compound 0.01 µM, first compound 0.1 µM",71.5%
same,"viability, T/C","second compound 0.01 µM, first compound 0.316 µM",67.6%
same,"viability, T/C","second compound 0.01 µM, first compound 1 µM",72.5%
same,"viability, T/C","second compound 0.0316 µM, first compound 0.00316 µM",64%
same,"viability, T/C","second compound 0.0316 µM, first compound 0.01 µM",47.8%
same,"viability, T/C",[1],41.2%
same,"viability, T/C",[2],43.4%
same,"viability, T/C",[3],44.6%
same,"viability, T/C",[4],56.5%
same,"viability, T/C","second compound 0.1 µM, first compound 0.00316 µM",41.3%
same,"viability, T/C","second compound 0.1 µM, first compound 0.01 µM",25.1%
same,"viability, T/C",[5],27.7%
same,"viability, T/C",[6],24.4%
same,"viability, T/C",[7],29%
same,"viability, T/C",[8],45.3%
same,"viability, T/C","second compound 0.316 µM, first compound 0.00316 µM",13%
same,"viability, T/C","second compound 0.316 µM, first compound 0.01 µM",12.3%
same,"viability, T/C",[9],14.8%
same,"viability, T/C",[10],16.3%
same,"viability, T/C",[11],23.4%
same,"viability, T/C",[12],34.4%
same,"viability, T/C","second compound 1 µM, first compound 0.00316 µM",6.17%
same,"viability, T/C","second compound 1 µM, first compound 0.01 µM",5.48%
same,"viability, T/C",[13],7.16%
same,"viability, T/C",[14],6.14%
same,"viability, T/C",[15],12.2%
same,"viability, T/C",[16],24.2%
CC1(C)CCC(Nc2ncc(C(F)(F)F)c(-c3c[nH]c4c(P(C)(C)=O)c(C#N)ccc34)n2)CN1 (stereo unspecified) + CC(Nc1ncnc2nc[nH]c12)c1cc2cccc(Cl)c2c(=O)n1-c1ccccc1,pIC50,second compound 0.0316 µM,< 5.00
same,pIC50,second compound 0.1 µM,< 5.00
same,pIC50,second compound 0.316 µM,< 5.00
same,pIC50,second compound 1 µM,< 5.00
same,pIC50,second compound 3.16 µM,< 5.00
same,pIC50,second compound 10 µM,5.39
same,"viability, T/C",[1],73.3%
same,"viability, T/C",[2],62.5%
same,"viability, T/C",[3],67.2%
same,"viability, T/C",[4],71.9%
same,"viability, T/C",[17],76.9%
same,"viability, T/C",[18],48.4%
same,"viability, T/C",[5],72.9%
same,"viability, T/C",[6],69.9%
same,"viability, T/C",[7],69.7%
same,"viability, T/C",[8],59.8%
same,"viability, T/C",[19],78.2%
same,"viability, T/C",[20],48.6%
same,"viability, T/C",[9],60.4%
same,"viability, T/C",[10],70.9%
same,"viability, T/C",[11],66%
same,"viability, T/C",[12],64.6%
same,"viability, T/C",[21],75.5%
same,"viability, T/C",[22],51%
same,"viability, T/C",[13],62.2%
same,"viability, T/C",[14],63.5%
same,"viability, T/C",[15],69.6%
same,"viability, T/C",[16],57.6%
same,"viability, T/C",[23],64.2%
same,"viability, T/C",[24],47.1%
same,"viability, T/C",[25],57.5%
same,"viability, T/C",[26],60.3%
same,"viability, T/C",[27],66.4%
same,"viability, T/C",[28],60%
same,"viability, T/C",[29],66.8%
same,"viability, T/C",[30],40.5%
same,"viability, T/C",[31],47.4%
same,"viability, T/C",[32],60.1%
same,"viability, T/C",[33],64.6%
same,"viability, T/C",[34],51.7%
same,"viability, T/C",[35],57.2%
same,"viability, T/C",[36],29%
C[C@@H](NC(=O)c1ncnc(N)c1Cl)c1ncc(C(=O)Nc2cc(C(F)(F)F)c(Cl)cn2)s1 + Cc1nc(NC(=O)N2CCCC2C(N)=O)sc1-c1ccnc(C(C)(C)C(F)(F)F)c1,pIC50,second compound 0.0316 µM,< 5.00
same,pIC50,second compound 0.1 µM,< 5.00
same,pIC50,second compound 0.316 µM,< 5.00
same,pIC50,second compound 1 µM,< 5.00
same,pIC50,second compound 3.16 µM,< 5.00
same,pIC50,second compound 10 µM,> 7.50
same,"viability, T/C",[1],108%
same,"viability, T/C",[2],99.6%
same,"viability, T/C",[3],88.5%
same,"viability, T/C",[4],87.2%
same,"viability, T/C",[17],88%
same,"viability, T/C",[18],102%
same,"viability, T/C",[5],109%
same,"viability, T/C",[6],80.1%
same,"viability, T/C",[7],105%
same,"viability, T/C",[8],80.6%
same,"viability, T/C",[19],93%
same,"viability, T/C",[20],99.5%
same,"viability, T/C",[9],94.3%
same,"viability, T/C",[10],99.5%
same,"viability, T/C",[11],109%
same,"viability, T/C",[12],86.8%
same,"viability, T/C",[21],97.7%
same,"viability, T/C",[22],97.3%
same,"viability, T/C",[13],88%
same,"viability, T/C",[14],86.7%
same,"viability, T/C",[15],90.4%
same,"viability, T/C",[16],91.4%
same,"viability, T/C",[23],95.6%
same,"viability, T/C",[24],100%
same,"viability, T/C",[25],78%
same,"viability, T/C",[26],69.3%
same,"viability, T/C",[27],68.1%
same,"viability, T/C",[28],64%
same,"viability, T/C",[29],74%
same,"viability, T/C",[30],73.2%
same,"viability, T/C",[31],36.7%
same,"viability, T/C",[32],37.1%
same,"viability, T/C",[33],41.8%
same,"viability, T/C",[34],36.7%
same,"viability, T/C",[35],40%
same,"viability, T/C",[36],46.6%
